Like-named read-outs stand apart in the source and are kept apart here.

Consider eight molecules from patent US20230285576A1, “TREATMENT OF CANCER USING A CYCLODEXTRIN-CONTAINING POLYMER-TOPOISOMERASE INHIBITOR CONJUGATE AND A PARP INHIBITOR” (ELLIPSES PHARMA LTD, priority 2020, published 2023).

The test system of assay [1] is carbonic anhydrase 9 (CA9). In words: CA9 immunostaining in HT-29 colorectal xenograft tumours. The assay is classed as in vivo, nude mouse. As to conditions: 7 days after a single IV treatment; CRLX-101 5 mg/kg, CPT 0.5 mg/kg.
Text: Tumours were harvested 7 days after treatment and immunostained with anti-CA9 antibody. Scale bar=50 μm.
Another assay deals with PANC-1. Kind of assay: MTS viability assay, CRLX-101 alone and with Olaparib, PANC-1. To be noted: Homo sapiens, 72 hours, Olaparib alone. The assay is classed as cell-based. The protocol:
(§1) The optimal seeding density for each cell line (DU145, Capan-1, Hs 766T, PANC-1, NUGC4, HEY, OVCAR3, OAW28 and NCI-H510A) will be determined prior to running the assay. Cells will be seeded in 50 μL media (in triplicate for each condition). Three 96 well flat bottom tissue culture plates will be required per cell line (See appendix I). Cells will be allowed to adhere overnight at 37° C., 5% CO2, 20% O2 before compound is added.
(§2) Day 5: Analysis of Proliferation • Remove plates from the incubator and perform a Cell Titre 96 Aqueous One Solution Cell Proliferation Assay (Promega #G3582) according to the manufacturers protocol. • Record absorbance at 490 nm using colorimetric plate reader.
A general note: Formazan colour is commonly taken as a measure of viable cells.

For a further assay, the system named is OVCAR3. Kind of assay: MTS viability assay, CRLX-101 alone and with Olaparib, OVCAR3. The assay is classed as cell-based. As to conditions: Homo sapiens, OVCAR-3, 72 hours, Olaparib alone. The protocol: as §1, §2
For a further assay, the system named is Hs 766T. Kind of assay: MTS viability assay, CRLX-101 alone and with Olaparib, Hs 766T. It counts as cell-based. To be noted: Hs766T, 72 hours, Olaparib alone, read-out: IC50 relative. The protocol: as §1, §2
The subject of assay [2] is NCI-H417a small-cell lung cancer tumour. It counts as in vivo. As to conditions: wild type BRCA1 and BRCA2.
The next assay relates to NCI-H510A. Kind of assay: MTS viability assay, CRLX-101 alone and with Olaparib, NCI-H510A. The assay is classed as cell-based. To be noted: Homo sapiens, 72 hours, Olaparib alone, read-out: IC50 relative. The protocol: as §1, §2
The test system of a further assay is OAW28. Kind of assay: MTS viability assay, CRLX-101 alone and with Olaparib, OAW28. As to conditions: Homo sapiens, OAW-28, 72 hours, Olaparib alone, read-out: IC50 relative. It counts as cell-based. The protocol:
as §1, §2

Assay [3] has as its system Capan-1. Kind of assay: MTS viability assay, CRLX-101 alone and with Olaparib, Capan-1 (schedule 1). It counts as cell-based. As to conditions: Homo sapiens, 72 hours, Olaparib alone. How it is done: as §1, §2
For the next assay, the system named is NUGC4. Kind of assay: MTS viability assay, CRLX-101 alone and with Olaparib, NUGC4. To be noted: Homo sapiens, NUGC-4, 72 hours, Olaparib alone, read-out: IC50 relative. The assay is classed as cell-based. How it is done: as §1, §2
The test system of another assay is DU145. In words: MTS viability assay, CRLX-101 alone and with Olaparib, DU145. It counts as cell-based. As to conditions: Homo sapiens, DU-145, 72 hours, Olaparib alone. The protocol:
as §1, §2

In assay [4] the test system is Capan-1. In words: MTS viability assay, CRLX-101 alone and with Olaparib, Capan-1 (schedule 2). As to conditions: Homo sapiens. It counts as cell-based. How it is done:
as §1, §2

Assay [5] deals with SKOV-3 human ovarian xenograft. To be noted: CRLX-101 9 mg/kg and/or Paclitaxel 30 mg/kg, QW × 3 IV. From the text: Body weight curves are means relative to the initial body weight, with bars indicating standard deviation. Survival is indicated as the percentage of animals remaining on study because mice bearing tumours that reached a predetermined cut off size (1500 mm3) were removed from the experiment.

The next assay deals with HIF-1α. Kind of assay: HIF-1α protein levels after CRLX-101 alone or combined with antiangiogenic drugs in A2780 ovarian tumour model. The assay is classed as in vivo, athymic nude mice. To be noted: for HIF-1Q % of Control mean + SD: CRLX-101 5 mg/kg QW × 2, n=3.
The test system of the next assay is HIF-2α. In words: Time course of HIF-2α inhibition in xenograft tumours (western blot). The assay is classed as in vivo, nude mouse. To be noted: single dose; same time period. (In general: A western blot detects proteins with antibodies after separation by electrophoresis.)
Another assay has as its system SUM159 tumours. Kind of assay: Tumour growth and tumour-initiating capacity in orthotopic SUM159 triple-negative breast cancer model. The assay is classed as in vivo, mice. To be noted: pre-treatment for 2 weeks. From the text: Such stimulation of CSCs could increase drug resistance and metastasis, and may be further enhanced by treatment with antiangiogenic drugs, which can increase tumour hypoxia by reducing blood flow to tumours. Inhibition of HIF-1α might therefore be beneficial to patients by reducing CSCs in tumours. […] Previously published studies have shown that Bevacizumab increases the CSC population mediated primarily by hypoxia induced up-regulation of HIF-1α. […] At the end of these 2 weeks, tumours were extracted and 100 tumour cells were implanted orthotopically into new, untreated mice.
Mice were dosed for two weeks at the dose level and frequency indicated in the legend. Tumour growth curves represent mean tumour volume and error bars represent standard deviation.

Setting [6] is: Mus musculus, A2780, read-out: HIF-1Q % of Control mean + SD.

Experimental for HIF-2α: Tumours were flash-frozen and HIF-1α or HIF-2α protein levels were measured via western blot analysis, quantified using infrared fluorescence detection, normalised to actin levels and calculated as a percentage of HIF protein levels in saline-treated mice.

In the case of `CC[C@@]1(O)C(=O)OCc2c1cc1n(c2=O)Cc2cc3ccccc3nc2-1` [CPT, 20(S)-Camptothecin], in assay [1], the “Inhibition of CA9 in tumours” value was “not”.

The IC50 is the concentration at which inhibition is half-maximal. Regarding `O=C(c1cc(Cc2n[nH]c(=O)c3ccccc23)ccc1F)N1CCN(C(=O)C2CC2)CC1` [Olaparib, 4-[3-(4-cyclopropanecarbonyl-piperazine-1-carbonyl)-4-fluoro-benzyl]-2H-phthalazin-1-one], the IC50 was determined as 79.2 µM in the assay with PANC-1 (read-out: IC50 Absolute); 9.26 µM with PANC-1 (read-out: IC50 relative); 43.4 µM with OVCAR3 (read-out: IC50 Absolute); 3.03 µM with OVCAR3 (read-out: IC50 relative); 14.1 µM in the assay with Hs 766T; 2.66 µM with NCI-H510A. The concentration for half-maximal inhibition (IC50) with OAW28 is about 8.88 µM; in the assay on Capan-1 [3] (read-out: IC50 Absolute) it was 40.1 µM; in the assay on Capan-1 [3] (read-out: IC50 relative), 5.71 µM; in the assay with NUGC4 it was about 11.5 µM; in the assay on DU145 (read-out: IC50 Absolute), 93.1 µM; with DU145 (read-out: IC50 relative), 11.6 µM. Also, the IC50 with Capan-1 [4] (CAPAN-1, read-out: IC50 relative) was 0.00546 µM; in the assay on Capan-1 [4] (Capan-1 (schedule 2), Olaparib alone, read-out: IC50 Absolute), 488 µM. The “Response of the model to monotherapy” value in [2] was “relatively non-responsive”.

In the case of `CC(=O)O[C@H]1C(=O)[C@@]2(C)[C@H]([C@H](OC(=O)c3ccccc3)[C@]3(O)C[C@H](OC(=O)[C@H](O)[C@@H](NC(=O)c4ccccc4)c4ccccc4)C(C)=C1C3(C)C)[C@]1(OC(C)=O)CO[C@@H]1C[C@@H]2O` [Paclitaxel], in assay [5] (N=10), the “CR (complete regressions)” value is listed as 1, the “PR (partial regressions)” value was 0 and the “TFS (tumour-free survivors)” value is listed as 1. The “Median TTE” value in assay [5] (endpoint 1500 mm3, N=10) turned out to be 42.8 days. Further, the TGD in [5] (vs control group) was found to be 18%.

As for `Cc1ccc(Nc2nccc(N(C)c3ccc4c(C)n(C)nc4c3)n2)cc1S(N)(=O)=O` [Pazopanib], the HIF-1α protein level (% of control) at 150 mg/kg in the assay with HIF-1α (setting [6]) stood at 226 ± 127%.

`CNC(=O)c1cc(Oc2ccc(NC(=O)Nc3ccc(Cl)c(C(F)(F)F)c3)c(F)c2)ccn1` [Regorafenib]: the HIF-1α protein level (% of control) at 50 mg/kg with HIF-1α (setting [6]) turned out to be 171 ± 4%.

Consider `CC[C@@]1(O)C(=O)OCc2c1cc1n(c2=O)Cc2cc3c(CN(C)C)c(O)ccc3nc2-1` [Topotecan], for which, in the assay on HIF-2α, the “Inhibition of HIF-2α, in words” value is “unable to significantly inhibit”.

Consider Aflibercept: antiangiogenic drug, for which the “HIF-1Q % of Control mean + SD” value in the assay on HIF-1α (Aflibercept study, Aflibercept 25 mg/kg Days 1, 4, 8) came out at 235 ± 80%.

Take “Bevacizumab: antiangiogenic drug, anti-VEGF antibody”: the “HIF-1Q % of Control mean + SD” value in the assay with HIF-1α (Bevacizumab study, Bevacizumab 5 mg/kg Days 1, 4, 8) is 127 ± 18%. Further, in the assay with SUM159 tumours, the “Tumour-initiating capacity of 100 re-implanted tumour cells” value was “enhanced tumour-initiating capacity compared to control”.
